The source of these data is patent publication US9266876B2 (Actelion Pharmaceuticals Ltd., priority 2012, dated 2016).

The subject of one assay is tumor cells. The settings on record: administration of AMG487; Pradelli, E. et al. Int J Cancer 2009, 125, 2586; cited from earlier work.
The next assay has as its target human CXCR3A (Homo sapiens (Human), UniProt P49682). The assay is described as follows: FLIPR assay. It is filed as cell-based. The note with it: CHO-K1 cells expressing the human CXCR3A coupled to Galpha(16); CXCL10 agonist 20 nM; Fluo-4-AM fluorescence; mean values if determined several times. An outline of the steps: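 CHO-K1 cells expressing CXCR3A coupled to Gα16 were loaded with Fluo-4-AM for 1 h in Hepes-buffered HBSS, pH 7.4, with 5 mM probenecid. Compound dilutions were added on the FLIPR, followed by CXCL10 (added as a 20 nM solution). Baseline-subtracted peak fluorescence was fitted to a single-site curve for IC50.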

The target in the next assay is CXCR3 (Homo sapiens (Human), UniProt P49682). The assay is described as follows: Receptor internalization assay. In kind it is cell-based. The settings on record: read-out: Internalization IC50. An outline of the steps:
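In human whole blood, compounds were incubated with CXCL10 (9 nM final) for 30 min at 37 °C to drive receptor internalization, then stained with anti-CXCR3/CD3 antibodies and lysed of red cells. Flow cytometry measured mean surface CXCR3 fluorescence on CD3+ cells, and IC50 came from single-site dose-response fits.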

Where [1] appears, read: human whole blood, final CXCL10 concentration 9 nM, 30 min 37° C., CXCR3 cell surface expression on CD3 positive cells, flow cytometer.

Each structure is given as a SMILES string. Like-named read-outs stand apart in the source and are kept apart here.

Sequence of human CXCR3A (P49682 whole entry): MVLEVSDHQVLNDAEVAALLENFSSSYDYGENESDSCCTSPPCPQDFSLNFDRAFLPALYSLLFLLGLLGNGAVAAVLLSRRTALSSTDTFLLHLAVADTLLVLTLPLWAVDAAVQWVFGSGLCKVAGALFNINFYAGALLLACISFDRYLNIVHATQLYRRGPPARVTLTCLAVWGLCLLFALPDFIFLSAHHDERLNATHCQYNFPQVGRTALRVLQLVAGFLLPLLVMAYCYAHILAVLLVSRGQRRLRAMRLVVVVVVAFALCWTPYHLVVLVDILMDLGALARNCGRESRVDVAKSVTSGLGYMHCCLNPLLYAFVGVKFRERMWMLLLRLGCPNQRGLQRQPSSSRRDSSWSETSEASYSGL
Sequence of CXCR3 (P49682 whole entry): as above

Regarding `CCOc1ccc(-n2c([C@@H](C)N(Cc3cccnc3)C(=O)Cc3ccc(OC(F)(F)F)cc3)nc3ncccc3c2=O)cc1` [AMG487], the “metastasis of tumor cells to the lungs” value in the assay on tumor cells is given as “could limit the metastasis of tumor cells to the lungs”.
For the compound `Cc1nc(C)n(CC(=O)N2CCN(c3sc(C(F)(F)F)nc3-c3nc4c(F)cccc4[nH]3)C[C@H]2C)n1` [Example 230, 2-(3,5-Dimethyl-[1,2,4]triazol-1-yl)-1-{(R)-4-[4-(4-fluoro-1H-benzoimidazol-2-yl)-2-trifluoromethyl-thiazol-5-yl]-2-methyl-piperazin-1-yl}-ethanone], the results for the IC50 at human CXCR3A and on CXCR3 (setting [1]) were 1 nM and 139 nM, respectively.
For `Cc1nc(C)n(CC(=O)N2CCN(c3sc(C(F)(F)F)nc3-c3nc4c(F)c(F)ccc4[nH]3)C[C@H]2C)n1` [Example 231, 1-{(R)-4-[4-(4,5-Difluoro-1H-benzoimidazol-2-yl)-2-trifluoromethyl-thiazol-5-yl]-2-methyl-piperazin-1-yl}-2-(3,5-dimethyl-[1,2,4]triazol-1-yl)-ethanone], in that order: 1 nM and 332 nM.
As to `Cc1nc(C)n(CC(=O)N2CCN(c3sc(C(F)(F)F)nc3-c3nc4c(C(F)(F)F)cccc4[nH]3)C[C@H]2C)n1` [Example 232, 2-(3,5-Dimethyl-[1,2,4]triazol-1-yl)-1-{(R)-2-methyl-4-[2-trifluoromethyl-4-(4-trifluoromethyl-1H-benzoimidazol-2-yl)-thiazol-5-yl]-piperazin-1-yl}-ethanone], the IC50 on human CXCR3A was found to be 7 nM; at CXCR3 (setting [1]), 494 nM.
Turning to `Cc1nc(C)n(CC(=O)N2CCN(c3sc(C(F)(F)F)nc3-c3nc4ccc(N5CCOCC5)cc4[nH]3)C[C@H]2C)n1` [Example 233, 2-(3,5-Dimethyl-[1,2,4]triazol-1-yl)-1-{(R)-2-methyl-4-[4-(6-morpholin-4-yl-1H-benzoimidazol-2-yl)-2-trifluoromethyl-thiazol-5-yl]-piperazin-1-yl}-ethanone], the values for the IC50 at human CXCR3A and on CXCR3 (setting [1]) were 6 nM and 376 nM, respectively.
For `Cc1nc(C)n(CC(=O)N2CCN(c3sc(C(F)(F)F)nc3-c3nc4ccc(-n5cncn5)cc4[nH]3)C[C@H]2C)n1` [Example 234, 2-(3,5-Dimethyl-[1,2,4]triazol-1-yl)-1-{(R)-2-methyl-4-[4-(6-[1,2,4]triazol-1-yl-1H-benzoimidazol-2-yl)-2-trifluoromethyl-thiazol-5-yl]-piperazin-1-yl}-ethanone], in that order: 6 nM and 822 nM.
With `Cc1nc(C)n(CC(=O)N2CCN(c3sc(C(F)(F)F)nc3-c3nc4ccc(-c5noc(C)n5)cc4[nH]3)C[C@H]2C)n1` [Example 236, 2-(3,5-Dimethyl-[1,2,4]triazol-1-yl)-1-((R)-2-methyl-4-{4-[6-(5-methyl-[1,2,4]oxadiazol-3-yl)-1H-benzoimidazol-2-yl]-2-trifluoromethyl-thiazol-5-yl}-piperazin-1-yl)-ethanone], the values for the IC50 on human CXCR3A and on CXCR3 (setting [1]) were 3 nM and 265 nM, respectively.
Regarding `Cc1nc(C)n(CC(=O)N2CCN(c3sc(C(F)(F)F)nc3-c3nc4ccc(C5CCN(C)CC5)cc4[nH]3)C[C@H]2C)n1` [Example 237, 2-(3,5-Dimethyl-[1,2,4]triazol-1-yl)-1-((R)-2-methyl-4-{4-[6-(1-methyl-piperidin-4-yl)-1H-benzoimidazol-2-yl]-2-trifluoromethyl-thiazol-5-yl}-piperazin-1-yl)-ethanone], the IC50 is 2 nM at human CXCR3A and 84 nM on CXCR3.
In the case of `Cc1nc(C)n(CC(=O)N2CCN(c3sc(C(F)(F)F)nc3-c3nc4ccc(C5CCOCC5)cc4[nH]3)C[C@H]2C)n1` [Example 238, 2-(3,5-Dimethyl-[1,2,4]triazol-1-yl)-1-((R)-2-methyl-4-{4-[6-(tetrahydro-pyran-4-yl)-1H-benzoimidazol-2-yl]-2-trifluoromethyl-thiazol-5-yl}-piperazin-1-yl)-ethanone], the IC50 is 1 nM at human CXCR3A and 103 nM at CXCR3 (setting [1]).
The corresponding values for `Cc1nc(C)n(CC(=O)N2CCN(c3sc(C(F)(F)F)nc3-c3nc4cc(CCN)ccc4[nH]3)C[C@H]2C)n1` [Example 239, 1-((R)-4-{4-[5-(2-Amino-ethyl)-1H-benzoimidazol-2-yl]-2-trifluoromethyl-thiazol-5-yl}-2-methyl-piperazin-1-yl)-2-(3,5-dimethyl-[1,2,4]triazol-1-yl)-ethanone] are 0.1 nM and 324 nM.
On to `Cc1nc(C)n(CC(=O)N2CCN(c3sc(C(F)(F)F)nc3-c3nc4ccc(C5CCNCC5)cc4[nH]3)C[C@H]2C)n1` [Example 240, 2-(3,5-Dimethyl-[1,2,4]triazol-1-yl)-1-{(R)-2-methyl-4-[4-(6-piperidin-4-yl-1H-benzoimidazol-2-yl)-2-trifluoromethyl-thiazol-5-yl]-piperazin-1-yl}-ethanone], for which the figures for the IC50 at human CXCR3A and on CXCR3 (setting [1]) were 2 nM and 222 nM, respectively.
For `Cc1nc(C)n(CC(=O)N2CCN(c3sc(C(F)(F)F)nc3-c3nc4cc(OC(F)(F)F)ccc4[nH]3)C[C@H]2C)n1` [Example 241, 2-(3,5-Dimethyl-[1,2,4]triazol-1-yl)-1-{(R)-2-methyl-4-[4-(5-trifluoromethoxy-1H-benzoimidazol-2-yl)-2-trifluoromethyl-thiazol-5-yl]-piperazin-1-yl}-ethanone], in that order: 2 nM and 169 nM.
For `Cc1nc(C)n(CC(=O)N2CCN(c3sc(C(F)(F)F)nc3-c3nc4ccc(OC5CNC5)cc4[nH]3)C[C@H]2C)n1` [Example 242, 1-((R)-4-{4-[6-(Azetidin-3-yloxy)-1H-benzoimidazol-2-yl]-2-trifluoromethyl-thiazol-5-yl}-2-methyl-piperazin-1-yl)-2-(3,5-dimethyl-[1,2,4]triazol-1-yl)-ethanone], the IC50 on human CXCR3A was determined as 4 nM; on CXCR3 (setting [1]), 438 nM.
The corresponding values for `Cc1nc(C)n(CC(=O)N2CCN(c3sc(C(F)(F)F)nc3-c3nc4ccccc4[nH]3)C[C@@H]2C)n1` [Example 243, 1-{(S)-4-[4-(1H-Benzoimidazol-2-yl)-2-trifluoromethyl-thiazol-5-yl]-2-methyl-piperazin-1-yl}-2-(3,5-dimethyl-[1,2,4]triazol-1-yl)-ethanone] are 3 nM and 1120 nM.
The corresponding values for `Cc1nc(C)n(CC(=O)N2CCN(c3sc(C(F)(F)F)nc3-c3nc4ccc(CCN5CCCC5)cc4[nH]3)C[C@H]2C)n1` [Example 244, 2-(3,5-Dimethyl-[1,2,4]triazol-1-yl)-1-((R)-2-methyl-4-{4-[6-(2-pyrrolidin-1-yl-ethyl)-1H-benzoimidazol-2-yl]-2-trifluoromethyl-thiazol-5-yl}-piperazin-1-yl)-ethanone] are 23 nM and 531 nM.
